Tested on: Bax
Test: Western blot of Bax in whole-hemisphere lysates, C6 rat glioma model
Format: in vivo
Description: For western-blot analysis, tumor-containing hemispheres were homogenized in Tris-HCl [50 mM Tris-HCl pH8, 120 mM NaCl, 5 mM EDTA, 0.5% (v/v) NP-40, […] phenylmethylsulfonyl fluoride (PMSF)] and sonicated. Homogenates were collected by centrifugation (15 min 11000 g. 4° C.) and protein concentration in the supernatant was determined using the Bio-Rad Protein Assay (Biorad, Munich, Germany). Lysates (20-40 μg) were separated on a 7% (w/v) sodium dodecyl sulfate (SDS)-polyacrylamide gel under reducing conditions and transferred to a PVDF membrane (Millipore, Bedford, Mass., USA). Non-specific binding was blocked by incubation with 5% (w/v) skimmed milk in TBS for 2 h. Following incubation with the primary antibody overnight at 4° C. [rabbit anti-BAX 1:1000, rabbit anti-cleaved caspase-3 1:1000, mouse […] 1:1000, goat anti-MMP-9 1:1000 in TBS containing 0.1% (v/v) Tween 20] membranes were washed three times in TBS/Tween for 5 min and subsequently incubated for 120 min in TBS/Tween containing secondary peroxidase-conjugated antibody at room temperature (anti-rabbit 1:1000, anti-mouse 1:1000; anti-goat 1:1000 respectively). Signals were visualized by chemoluminescence (Pierce, Rockford, Ill., USA) and band intensities were quantified with NIH Image 1.62 software (Bethesda, Md., USA).

CCc1ccc(CCOc2ccc(CC3SC(=O)NC3=O)cc2)nc1 (stereo not drawn) [pioglitazone, 5-[4-[2-(5-ethylpyridin-2-yl)ethoxyl]benzyl]thiazolidine-2,4-dione]
Bax-protein levels versus vehicle (densitometry), in words (3, 6, 9 and 14 d): significant difference | induction of Bax protein (densitometry) (6 d of pio treatment): 1.66 fold | upregulation of proapoptotic proteins (after 21 days of treatment (data not shown)): not associated with an upregulation of proapoptotic proteins
